Assay results as given in publication PMC5649189, “Bioactivity Potential of Prunus spinosa L. Flower Extracts: Phytochemical Profiling, Cellular Safety, Pro-inflammatory Enzymes Inhibition and Protective Effects Against Oxidative Stress In Vitro” (Frontiers in Pharmacology, 2017).

target: T1, lipoxygenase from soybean (LOX); test: lipoxygenase inhibition assay, 96-well plate reader; format: biochemical, Glycine max; conditions: substrate linoleic acid; positive control; μg of standard per mL of the enzyme solution
T1 construct: gene LOX1.1; such preparations are usually mainly lipoxygenase-1
Excerpt: lipoxygenase inhibition assay, 96-well plate reader on lipoxygenase from soybean (LOX)

LOX / IC50 (μg/mL)^a | SMILES
166.83 ± 7.15 µg/mL | O=C(/C=C/c1ccc(O)c(O)c1)O[C@@H]1C[C@](O)(C(=O)O)C[C@@H](O)[C@H]1O [CHA, 5-O-Caffeoylquinic acid]
92.60 ± 3.71 µg/mL | COc1ccc2c(c1)c(CC(=O)O)c(C)n2C(=O)c1ccc(Cl)cc1 [IND, indomethacin]
89.23 ± 2.13 µg/mL | O=c1c(O)c(-c2ccc(O)c(O)c2)oc2cc(O)cc(O)c12 [QU, quercetin]
162.70 ± 3.70 µg/mL | C[C@@H]1O[C@@H](OC[C@H]2O[C@@H](Oc3c(-c4ccc(O)c(O)c4)oc4cc(O)cc(O)c4c3=O)[C@H](O)[C@@H](O)[C@@H]2O)[C@H](O)[C@H](O)[C@H]1O [RT, Quercetin 3-O-(6′′-O-α-L-rhamnopyranosyl)-β-D-glucopyranoside]
